Laboratory results as given in patent US20250066347A1, “SUBSTITUTED THIAZOLIDINEDIONE DERIVATIVE COMPOUND, AND PHARMACEUTICAL COMPOSITION FOR PREVENTING OR TREATING CANCER, COMPRISING SAME” (MEDIFIC, INC., priority 2021, published 2025).
Values joined by “and” are separate entries in the source; they are usually repeats but may differ in a detail not shown here. Equal entries are not always repeated. Where two headings read alike, the source gives them in different places.

What was measured:
[1] = In vivo PK test, drug concentration in plasma after oral or intravenous administration; conditions: mouse
Procedure: • Experimental Drug: Compound 11 • Excipient: 10% DMSO, 75% PEG400, 15% saline 1.2. Experimental system • mouse, CRljOri:CD1(ICR), SPF 6 weeks old (7 weeks old at the time of administration) 1.3. Administration route • oral administration (PO), intravenous administration (IV) 1.4. Administration method and number of administration
After obtaining the mouse, the mouse was acclimatized for 5 days, and used in the experiment. An administration dose was 25 mg/kg by oral administration and 5 mg/kg by intravenous administration. A dosage for each individual was calculated based on the weight after fasting (on the day of administration), and the drug was orally administered once to an oral administration (PO) group using a disposable syringe (1 mL) with a zonde for oral administration attached, and intravenously administered to the tail vein of an intravenous administration (IV) group using a disposable syringe (1 mL).
About 0.3 mL of blood was collected from a jugular vein with a 1 mL syringe (25G) treated with 3.8% sodium citrate (about 30˜40 μl), placed in one microtube (QSP, 1.5 mL), and centrifuged at 12,000 RPM/3 min to collect plasma. The plasma was frozen and stored at −80° C. until analysis, and all animals of a pharmacokinetic experiment group were euthanized after completing the blood collection.
580 μl of acetonitrile (including internal standard) was added to 20 μl of plasma/tissue, and centrifugation was performed at 4° C. at 15,000 rpm for 5 minutes with vortexing. A supernatant obtained after the centrifugation was analyzed with LC-MS/MS.
PK parameter was calculated as a non-compartmental analysis model, using a phoenix WinNonlin 6.4 version (Pharsight, USA) program.

[2] = test system: HOG-GSC brain tumor stem cell line; assay: In vivo efficacy evaluation, HOG-GSC orthotopic xenograft model; parameters: species or system BALB/c nude mouse; conditions: 25 mg/kg/day oral, day 16 after tumor transplantation
From the text: First, HOG-GSC which is a brain tumor stem cell line was transplanted to a caudate putamen in the brain of a BALB/c nude mouse to establish am orthotropic xenograft model. After transplanting the brain tumor stem cells, the implementation compound of the present invention was orally administered from day 7 for 3 weeks with a schedule of 5 days of administration and 2 days of off medication, and only excipient was administration in the same manner to the control group. Thereafter, based on clinical findings resulting from the growth of the brain tumor in the animals, the survival period of the mouse was investigated, thereby confirming that the death of the animal due to a tumor was delayed by the administration of the implementation compound of the present invention. In addition, both the control mouse and the mouse to which the implementation compound of the present invention was administered were euthanized on day 16 after transplanting the tumor, their brain tissues were harvested, and the sizes of the brain tumor on the same date were compared.

[3] = CRljOri:CD1(ICR), 25 mg/kg oral administration, plasma

- concentration at 8 h ([1]; CRljOri:CD1(ICR), plasma, po, 25 mg/kg, oral 25 mg/kg, 8 hr, read-out: Drug concentration in plasma, Individual): 3930 ng/mL
- concentration at 24 h ([1]; CRljOri:CD1(ICR), plasma, po, 25 mg/kg, oral 25 mg/kg, 24 hr, BQL = <1 ng/ml, read-out: Drug concentration in plasma, Individual): 4.1 ng/mL
- concentration at 24 h ([1]; CRljOri:CD1(ICR), plasma, po, 25 mg/kg, oral 25 mg/kg, 24 hr, read-out: Drug concentration in plasma, Average): 3.6 ng/mL
- bioavailability ([1]; CRljOri:CD1(ICR), plasma, 25 mg/kg oral compared with 5 mg/kg intravenous, read-out: bioavailability (BA)): 62.4%
- AUC(0-t) [1, 3]: 39400 ng·h/mL
- Cmax [1, 3]: 5040 ng/mL
- Tmax [1, 3]: 1.6 h
- half-life [1, 3]: 3.9 h
- Drug concentration in plasma, Individual ([1]; intravenous 5 mg/kg, 24 hr, BQL = <1 ng/ml, ND = not detectable, 5 mg/kg): 1.7 ng/ml and BQL
- Drug concentration in plasma, Individual ([1]; oral 25 mg/kg, 24 hr, BQL = <1 ng/ml, 25 mg/kg): BQL and 2.5 ng/ml and 4.1 ng/ml
SMILES: CC(C)(C)c1ccc(-c2cc(/C=C3\SC(=O)NC3=O)ccn2)cc1 [Compound 11, (Z)-5-((2-(4-(tert-butyl)phenyl)pyridin-4-yl)methylene)thiazolidine-2,4-dione]
- Drug concentration in plasma, Individual ([1]; intravenous 5 mg/kg, 0.08 hr, 5 mg/kg): 2800.0 ng/mL and 1900.0 ng/mL and 2700.0 ng/mL
- Drug concentration in plasma, Individual ([1]; intravenous 5 mg/kg, 0.25 hr, 5 mg/kg): 2240.0 ng/mL and 2890.0 ng/mL and 2430.0 ng/mL
- Drug concentration in plasma, Individual ([1]; intravenous 5 mg/kg, 0.5 hr, 5 mg/kg): 1890.0 ng/mL and 2360.0 ng/mL and 2000.0 ng/mL
- Drug concentration in plasma, Individual ([1]; intravenous 5 mg/kg, 1 hr, 5 mg/kg): 1780.0 ng/mL and 2380.0 ng/mL and 1630.0 ng/mL
- Drug concentration in plasma, Individual ([1]; intravenous 5 mg/kg, 2 hr, 5 mg/kg): 1420.0 ng/mL and 2240.0 ng/mL and 1480.0 ng/mL
- Drug concentration in plasma, Individual ([1]; intravenous 5 mg/kg, 4 hr, 5 mg/kg): 1410.0 ng/mL and 1400.0 ng/mL and 1260.0 ng/mL
- Drug concentration in plasma, Individual ([1]; intravenous 5 mg/kg, 6 hr, 5 mg/kg): 476.0 ng/mL and 491.0 ng/mL and 1080.0 ng/mL and 561.0 ng/mL
- Drug concentration in plasma, Individual ([1]; intravenous 5 mg/kg, 8 hr, 5 mg/kg): 614.0 ng/mL and 618.0 ng/mL and 644.0 ng/mL
- Drug concentration in plasma, Individual ([1]; oral 25 mg/kg, 0.25 hr, 25 mg/kg): 3210.0 ng/mL and 2230.0 ng/mL and 4300.0 ng/mL and 2000.0 ng/mL
- Drug concentration in plasma, Individual ([1]; oral 25 mg/kg, 0.5 hr, 25 mg/kg): 3590.0 ng/mL and 2340.0 ng/mL and 4750.0 ng/mL and 7010.0 ng/mL
- Drug concentration in plasma, Individual ([1]; oral 25 mg/kg, 1 hr, 25 mg/kg): 4140.0 ng/mL and 2380.0 ng/mL and 2070.0 ng/mL and 6490.0 ng/mL
- Drug concentration in plasma, Individual ([1]; oral 25 mg/kg, 2 hr, 25 mg/kg): 3270.0 ng/mL and 2030.0 ng/mL and 4100.0 ng/mL and 6070.0 ng/mL
- Drug concentration in plasma, Individual ([1]; oral 25 mg/kg, 4 hr, 25 mg/kg): 2020.0 ng/mL and 4420.0 ng/mL and 2930.0 ng/mL and 4810.0 ng/mL
- Drug concentration in plasma, Individual ([1]; oral 25 mg/kg, 6 hr, 25 mg/kg): 7260.0 ng/mL and 8180.0 ng/mL and 2630.0 ng/mL and 3680.0 ng/mL
- Drug concentration in plasma, Individual ([1]; oral 25 mg/kg, 8 hr, 25 mg/kg): 4120.0 ng/mL and 4850.0 ng/mL and 7180.0 ng/mL
- Tumor cross-sectional area/brain cross-sectional ratio, Average [2]: 0.02186
- Tumor cross-sectional area/brain cross-sectional ratio, individual [2]: 0.04373 and 0
